This note sets out measurements from PMC3253112, “Functional Evolution of Duplicated Odorant-Binding Protein Genes, Obp57d and Obp57e, in Drosophila” (PLoS ONE, 2012).

Changes are numbered by the printed parent chain.

Common to all, as to assay: intrinsic tryptophan fluorescence quenching
Type in all cases: binding
Conditions in all cases: 20 mM sodium acetate pH 5.0, 25 °C, 1 µM OBP; Q = ligand concentration at which 3% of OBP is bound

The target in one test is T1, Dpse\OBP57de (Drosophila pseudoobscura, UniProt A0A6I8UUP3).
T1 construct: gene LOC4804642; mature protein, signal peptide removed, untagged, Met added; primer encodes N-terminus HSNTAIFN
T1 sequence (A0A6I8UUP3 20-133): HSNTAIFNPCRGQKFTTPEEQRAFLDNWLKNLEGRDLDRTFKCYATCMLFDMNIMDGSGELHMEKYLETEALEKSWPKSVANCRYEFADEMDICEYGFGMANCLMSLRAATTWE

Another test has as its target T2, Dmel\OBP57e (Drosophila melanogaster, UniProt Q9V938).
T2 construct: mature protein, signal peptide removed, untagged; cloning primer encodes NTSVFNP
T2 sequence (Q9V938 21-136): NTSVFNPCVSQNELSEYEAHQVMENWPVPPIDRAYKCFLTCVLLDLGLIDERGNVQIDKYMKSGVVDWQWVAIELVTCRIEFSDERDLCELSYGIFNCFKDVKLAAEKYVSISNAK

Test [1] addresses T3, Dmel\OBP57d (Drosophila melanogaster, UniProt Q8MMF9, DEL101-101).
T3 construct: mature protein, signal peptide removed, untagged, Met added; primer encodes N-terminus NDPCPHNQGID, C-terminus LTKS
T3 sequence (Q8MMF9 with tags, fused parts or gaps DEL101-101): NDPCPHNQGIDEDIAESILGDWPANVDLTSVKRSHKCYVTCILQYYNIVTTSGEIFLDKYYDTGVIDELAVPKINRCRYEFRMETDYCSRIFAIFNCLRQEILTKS

Test [2] has as its target T4, Dmel\OBP57d (Drosophila melanogaster, UniProt Q8MMF9, C33A).
T4 construct: mature protein, signal peptide removed, untagged, Met added; primer encodes N-terminus NDPCPHNQGID, C-terminus LTKS
T4 sequence (Q8MMF9 30-136 C33A): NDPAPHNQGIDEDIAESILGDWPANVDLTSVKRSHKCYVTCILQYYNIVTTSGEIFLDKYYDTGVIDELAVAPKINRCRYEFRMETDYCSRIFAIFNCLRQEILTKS

The target of test [3] is T5, Dmel\OBP57d (Drosophila melanogaster, UniProt Q8MMF9, P52A).
T5 construct: mature protein, signal peptide removed, untagged, Met added; primer encodes N-terminus NDPCPHNQGID, C-terminus LTKS
T5 sequence (Q8MMF9 30-136 P52A): T4 sequence (Q8MMF9 30-136 C33A) with A4C, P23A

For test [4], the target named is T6, Dmel\OBP57d (Drosophila melanogaster, UniProt Q8MMF9).
T6 construct: mature protein, signal peptide removed, untagged, Met added; primer encodes N-terminus NDPCPHNQGID, C-terminus LTKS
T6 sequence (Q8MMF9 30-136): T4 sequence (Q8MMF9 30-136 C33A) with A4C

Test [5] concerns the target T7, Dmel\OBP57d (Drosophila melanogaster, UniProt Q8MMF9, Y89A).
T7 construct: mature protein, signal peptide removed, untagged, Met added; primer encodes N-terminus NDPCPHNQGID, C-terminus LTKS
T7 sequence (Q8MMF9 30-136 Y89A): T4 sequence (Q8MMF9 30-136 C33A) with A4C, Y60A

For test [6], the target named is T8, Dmel\OBP57d (Drosophila melanogaster, UniProt Q8MMF9, L133A).
T8 construct: mature protein, signal peptide removed, untagged, Met added; primer encodes N-terminus NDPCPHNQGID, C-terminus LTKS
T8 sequence (Q8MMF9 30-136 L133A): T4 sequence (Q8MMF9 30-136 C33A) with A4C, L104A

Test [7] has as its target T9, Dmel\OBP57d (Drosophila melanogaster, UniProt Q8MMF9, D96A).
T9 construct: mature protein, signal peptide removed, untagged, Met added; primer encodes N-terminus NDPCPHNQGID, C-terminus LTKS
T9 sequence (Q8MMF9 30-136 D96A): T4 sequence (Q8MMF9 30-136 C33A) with A4C, D67A

Turning to `CCCCCCCCCCCC(=O)O` [C12, C12 fatty acid], the “Q (quenching value)” value at Dpse\OBP57de was “The binding affinity of Dmel\OBP57e and Dpse\OBP57de to the same set of compounds was examined”; on Dmel\OBP57e, “particularly obvious in the affinity to C10–C13 fatty acids and 1-tridecanol”.

For `CCCCCCCCCCC(=O)O` [C11, C11 fatty acid], the “Q (quenching value)” value at Dmel\OBP57e is “particularly obvious in the affinity to C10–C13 fatty acids and 1-tridecanol”.

On to `CCCCCCCCCCCCC(=O)O` [C13, tridecanoic acid], for which the “Q (quenching value)” value on Dmel\OBP57d [1] was “none showed a complete loss of interaction with ligands”; at Dmel\OBP57d [2], “none showed a complete loss of interaction with ligands”; at Dmel\OBP57d [3], “none showed a complete loss of interaction with ligands”; at Dmel\OBP57d [4], “the strongest interaction was observed with the longer chain fatty acid (tridecanoic acid: C13)”; at Dmel\OBP57d [5] it was “none showed a complete loss of interaction with ligands”; at Dmel\OBP57e, “Dmel\OBP57e also showed higher affinity than Dpse\OBP57de, not only to tridecanoic acid”. The “Q (quenching value)” value on Dmel\OBP57d [6] and at Dmel\OBP57d [7] was “none showed a complete loss of interaction with ligands” in each case.

Regarding `CCCCCCCCCC(=O)O` [C10, decanoic acid], at Dmel\OBP57e, the “Q (quenching value)” value was “particularly obvious in the affinity to C10–C13 fatty acids and 1-tridecanol”.
